Tests used:
HPK1 = HPK1 (Homo sapiens, UniProt Q92918); test: HPK1 kinase activity inhibition test (ADP-Glo, luminescence); assay type: biochemical; conditions: 2 μM ATP, 5 nM HPK1, read-out: IC50, inhibitory effects on HPK1 kinase activity
Procedure: The kinase activity of HPK1 is manifested as activity of autophosphorylation and phosphorylation of downstream substrates. In the process of autophosphorylation, additional substrates are not required, and ATP is consumed to generate ADP. The amount of the product is measured by ADP-Glo reagent and luminescence method to reflect kinase activity.
(§1) Tested compounds: compounds prepared in the Examples of this invention.
Preparation of compound stock solution: dissolve the test compound in 100% DMSO to make a 10 mM stock solution;
Preparation of 4×Kinase Reaction Buffer:
Preparation of 2×HPK1 Kinase Solution:
Preparation of 4×ATP Mixture:
Dilute the stock solution of the test compound by 5 times with 100% DMSO, make a 4-fold equal dilution in a 96-well dilution plate, add 1 μL of the compound to 49 μL of kinase reaction buffer, and shake on a microplate shaker for 20 minutes. Transfer 2 μL of 2×HPK1 kinase solution to 384 reaction plate, add 1 μL of the test compound to the 384 reaction plate (Greiner, Cat #784075), centrifuge for 1 minute (1000 rpm/min), incubate at 25° C. for 10 minutes. Transfer 1 μL of the 4×ATP mixture to a 384 reaction plate, centrifuge for 1 minute (1000 rpm/min), and incubate at 25° C. for 60 minutes. In the reaction system, the final concentration of DMSO is 0.5%. Transfer 4 μL of ADP-Glo to a 384 reaction plate, centrifuge for 1 minute (1000 rpm/min), and incubate at 25° C. for 40 minutes. Transfer 8 μL detection solution to a 384 reaction plate, centrifuge for 1 minute (1000 rpm/min), and incubate at 25° C. for 40 minutes. The […] is read using a Biotek multi-function plate reader, and the IC50 (half inhibitory concentration) of the compound is obtained using a four-coefficient nonlinear fitting formula.

FLT3 = molecular target: T1, FLT3 (Homo sapiens, UniProt P36888); test: FLT3 kinase activity inhibition test (HTRF); assay type: biochemical; conditions: read-out: IC50, inhibitory effects on FLT3 kinase activity
T1 sequence (P36888 27-993): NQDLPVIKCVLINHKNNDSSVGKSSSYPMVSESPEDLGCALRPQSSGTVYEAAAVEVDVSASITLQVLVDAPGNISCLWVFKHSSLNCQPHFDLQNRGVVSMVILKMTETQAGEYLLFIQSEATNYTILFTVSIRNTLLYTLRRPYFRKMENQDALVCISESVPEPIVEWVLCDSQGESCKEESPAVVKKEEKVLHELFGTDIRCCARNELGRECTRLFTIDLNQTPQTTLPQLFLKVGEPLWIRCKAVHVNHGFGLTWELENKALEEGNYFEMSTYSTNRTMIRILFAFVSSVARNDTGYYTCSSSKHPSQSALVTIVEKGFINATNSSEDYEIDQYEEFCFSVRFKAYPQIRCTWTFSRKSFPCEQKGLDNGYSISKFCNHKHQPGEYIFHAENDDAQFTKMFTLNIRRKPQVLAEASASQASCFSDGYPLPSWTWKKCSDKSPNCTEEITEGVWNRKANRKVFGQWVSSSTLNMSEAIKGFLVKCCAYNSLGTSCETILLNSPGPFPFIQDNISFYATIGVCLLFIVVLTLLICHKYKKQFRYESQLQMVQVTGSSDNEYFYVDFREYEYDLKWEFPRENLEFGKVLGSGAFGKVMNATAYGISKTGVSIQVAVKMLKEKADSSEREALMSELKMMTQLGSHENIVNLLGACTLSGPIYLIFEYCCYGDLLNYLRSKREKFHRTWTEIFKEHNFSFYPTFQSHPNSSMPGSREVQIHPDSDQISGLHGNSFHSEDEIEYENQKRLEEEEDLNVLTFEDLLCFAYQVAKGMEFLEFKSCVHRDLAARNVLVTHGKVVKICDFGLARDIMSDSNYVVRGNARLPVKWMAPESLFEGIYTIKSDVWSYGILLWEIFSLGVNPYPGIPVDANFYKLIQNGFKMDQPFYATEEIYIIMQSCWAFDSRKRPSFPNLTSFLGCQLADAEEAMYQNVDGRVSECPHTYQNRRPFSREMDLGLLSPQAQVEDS
Procedure: as §1
(§2) Prepare compound stock solution: dissolve the test compound in 100% DMSO to make a 10 mM stock solution. Dilute the stock solution of the test compound by 5 times with 100% DMSO, make a 4-fold equal dilution in a 96-well dilution plate, add 1 μL of the compound to 39 μL of kinase reaction buffer (1×kinase buffer, 5 mM MgCl2, 1 mM DTT), and shake on a microplate shaker for 20 minutes. 4×Positive control (4 μL of positive compound solution of the starting concentration, add 196 μL of kinase buffer) and 4×negative control (4 μL of 100% DMSO, add 196 μL of kinase buffer).
(§3) (1) Use 1×kinase reaction buffer to prepare 2.5×FLT3 kinase solution (160 μM), transfer 2 μL of the kinase solution to the 384 reaction plate, and add 1 μL of the test compound solution of gradient concentration to the 384 reaction plate (Greiner, Cat #784075), centrifuge for 1 minute (1000 rpm), and incubate at 25° C. for 10 minutes.
(§4) (2) Use 1×kinase reaction buffer to prepare 2.5×TK-substrate-biotin (2.5 μM) and 2.5×ATP (2.5 μM), mix well, and add 2 μL of the TK-substrate-biotin/ATP solution to the 384 reaction plate, centrifuge for 30 seconds (1000 rpm), and incubate at 25° C. for 40 minutes.
(§5) (3) Use HTRF detection buffer to prepare 2×Sa-XL 665 (125 nM) and 1×TK-antibody-Cryptate. Add 5 μL of a mixture of Sa-XL 665 and TK-antibody-Cryptate solutions to each well, centrifuge for 30 seconds (1000 rpm), and react at room temperature for 1 hour.
(§6) (4) The fluorescence signal is read using a Biotek multi-function plate reader, and the IC50 (half inhibitory concentration) of the compound is obtained using a four-coefficient nonlinear fitting formula.

KDR = KDR (Homo sapiens, UniProt P35968); test: KDR kinase activity inhibition test (HTRF); assay type: biochemical; conditions: read-out: IC50, inhibitory effects on KDR kinase activity
Procedure: as §1, §2
as §3, with “2.5×KDR” for “2.5×FLT3”, “(250” for “(160”
as §4, §5, §6

Human Jurkat-E6-1 cells = test: Detection of IL-2 production by Jurkat cells using ELISA; assay type: cell-based; conditions: anti-CD3/anti-CD28 stimulation 24 hours, read-out: Percentage of the amount of IL-2 secreted by compound treated vs DMSO-treated cells; for activity at 1 µM: tested compound 1.0 μM; for activity at 0.33 µM: tested compound 0.33 μM
Procedure: as §1
Human Jurkat-E6-1 cells were incubated with various concentrations of tested compounds for 30 minutes in a humidified incubator at 37° C. and 5% CO2. Cells were transferred to cell culture plates pre-coated with anti-human CD3 antibody, then soluble anti-human CD28 antibody was added, and cells were stimulated for 24 hours at 37° C. and 5% CO2 in a humidified incubator. The cell culture medium was collected after centrifugation, and was then transferred to a 96-well transparent microtiter plate (Thermo) pre-coated with anti-human IL-2 antibody, incubated at room temperature for 2 hours with gently shaking, washed with washing buffer for 4 times, and then followed the ELISA MAX Deluxe Set Human IL-2 (BioLegend) kit procedures, used a microplate reader (Molecular Device, i3X) to read the GD value at 450 nm. The best standard curve was selected by the microplate reader application software, and the corresponding concentration was calculated according to the GD value of the standard. Results are expressed as a percentage (%) of the amount of IL-2 secreted by compound-treated vs DMSO-treated cells.

Sequence of KDR (P35968 20-1356): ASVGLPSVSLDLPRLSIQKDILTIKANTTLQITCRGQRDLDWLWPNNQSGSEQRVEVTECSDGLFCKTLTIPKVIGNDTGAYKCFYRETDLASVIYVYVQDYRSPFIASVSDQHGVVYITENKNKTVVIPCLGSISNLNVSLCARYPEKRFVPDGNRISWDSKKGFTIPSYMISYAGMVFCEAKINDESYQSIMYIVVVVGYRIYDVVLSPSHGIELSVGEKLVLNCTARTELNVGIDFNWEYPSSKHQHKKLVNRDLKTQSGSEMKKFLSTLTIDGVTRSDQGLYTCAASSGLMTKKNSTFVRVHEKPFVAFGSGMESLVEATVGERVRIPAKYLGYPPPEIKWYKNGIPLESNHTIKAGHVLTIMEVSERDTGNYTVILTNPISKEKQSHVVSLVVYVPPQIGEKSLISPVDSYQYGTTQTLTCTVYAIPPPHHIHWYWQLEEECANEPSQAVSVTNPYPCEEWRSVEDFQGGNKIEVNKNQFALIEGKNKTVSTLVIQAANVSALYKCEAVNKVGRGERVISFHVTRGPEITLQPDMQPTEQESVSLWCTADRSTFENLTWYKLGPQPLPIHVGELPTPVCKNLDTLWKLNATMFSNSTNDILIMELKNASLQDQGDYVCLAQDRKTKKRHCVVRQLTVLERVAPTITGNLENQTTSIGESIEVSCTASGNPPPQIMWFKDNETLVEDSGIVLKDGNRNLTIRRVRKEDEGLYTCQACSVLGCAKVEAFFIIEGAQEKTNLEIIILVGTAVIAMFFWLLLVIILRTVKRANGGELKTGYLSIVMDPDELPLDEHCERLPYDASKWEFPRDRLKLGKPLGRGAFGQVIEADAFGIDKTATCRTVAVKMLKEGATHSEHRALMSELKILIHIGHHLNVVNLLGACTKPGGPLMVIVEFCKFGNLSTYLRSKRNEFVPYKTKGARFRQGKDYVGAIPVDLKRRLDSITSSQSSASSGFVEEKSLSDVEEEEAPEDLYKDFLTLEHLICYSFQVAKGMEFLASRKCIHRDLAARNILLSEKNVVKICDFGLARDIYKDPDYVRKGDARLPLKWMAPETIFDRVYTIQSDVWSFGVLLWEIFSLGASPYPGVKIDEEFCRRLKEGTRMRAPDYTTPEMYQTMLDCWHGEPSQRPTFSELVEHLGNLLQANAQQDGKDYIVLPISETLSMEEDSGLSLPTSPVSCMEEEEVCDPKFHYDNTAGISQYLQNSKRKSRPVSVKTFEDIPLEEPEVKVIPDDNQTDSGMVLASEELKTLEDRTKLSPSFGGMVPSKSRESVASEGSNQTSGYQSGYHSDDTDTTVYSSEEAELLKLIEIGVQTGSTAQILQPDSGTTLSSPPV
Sequence of HPK1 (Q92918 whole entry): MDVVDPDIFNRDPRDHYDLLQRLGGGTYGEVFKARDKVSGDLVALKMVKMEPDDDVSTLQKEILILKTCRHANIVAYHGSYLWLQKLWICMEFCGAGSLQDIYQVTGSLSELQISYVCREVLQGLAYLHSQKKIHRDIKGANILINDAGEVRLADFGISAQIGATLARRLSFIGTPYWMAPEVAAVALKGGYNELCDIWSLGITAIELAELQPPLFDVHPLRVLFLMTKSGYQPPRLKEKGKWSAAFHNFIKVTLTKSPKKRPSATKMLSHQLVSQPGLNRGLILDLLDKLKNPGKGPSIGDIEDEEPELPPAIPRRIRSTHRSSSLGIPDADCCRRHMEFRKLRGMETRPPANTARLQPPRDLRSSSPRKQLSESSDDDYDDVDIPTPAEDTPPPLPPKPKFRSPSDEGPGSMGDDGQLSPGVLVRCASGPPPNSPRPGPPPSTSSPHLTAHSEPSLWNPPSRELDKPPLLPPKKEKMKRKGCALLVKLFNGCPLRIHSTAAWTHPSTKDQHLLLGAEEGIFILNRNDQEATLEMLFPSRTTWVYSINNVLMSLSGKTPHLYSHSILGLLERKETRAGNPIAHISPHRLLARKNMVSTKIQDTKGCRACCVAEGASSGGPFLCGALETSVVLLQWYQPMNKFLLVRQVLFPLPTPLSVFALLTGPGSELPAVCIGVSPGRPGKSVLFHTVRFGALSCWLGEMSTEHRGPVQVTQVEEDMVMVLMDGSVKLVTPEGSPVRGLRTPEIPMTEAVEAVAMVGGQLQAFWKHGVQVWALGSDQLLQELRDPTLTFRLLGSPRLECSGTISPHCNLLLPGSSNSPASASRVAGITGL

| IC50 (HPK1) | IC50 (FLT3) | IC50 (KDR) | Structure (SMILES) | activity at 1 µM (Human Jurkat-E6-1 cells) | activity at 0.33 µM (Human Jurkat-E6-1 cells) |
| --- | --- | --- | --- | --- | --- |
| ≤ 5 nM | ≤ 5 nM | 5 to 50 nM | Fc1cccc2c1-c1cc3c(n[nH]c3cn1)-c1ccc(N3CCNCC3)c(c1)OCCCOC2 [Compound 10, 17-fluoro-5-(piperazin-1-yl)-7,11-dioxa-20,23,24-triazapentacyclo[17.5.2.1^2,6.0^13,18.0^22,25]heptacosa-1(24),2(27),3,5,13,15,17,19,21,25-decaene] | 298% |  |
| ≤ 5 nM | ≤ 5 nM | 5 to 50 nM | OCCN1CCN(c2ccc3cc2OCCCOCc2cccc(F)c2-c2cc4c-3n[nH]c4cn2)CC1 [Compound 12, 17-fluoro-5-(4-(2-hydroxyethyl)piperazin-1-yl)-7,11-dioxa-20,23,24-triazapentacyclo[17.5.2.1^2,6.0^13,18.0^22,25]heptacosa-1(24),2(27),3,5,13,15,17,19,21,25-decaene] |  |  |
| ≤ 5 nM | ≤ 5 nM | ≤ 5 nM | Fc1cccc2c1-c1cc3c(n[nH]c3cn1)-c1ccc(N3CCN4CCOC[C@H]4C3)c(c1)OCCCO2 [Compound 102, 5-[(9aR)-octahydropyrazino[2,1-c][1,4]oxazin-8-yl]-16-fluoro-7,11-dioxa-19,22,23-triazapentacyclo[16.5.2.1^2,6.0^12,17.0^21,24]hexacosa-1(23),2,4,6(26),12(17),13,15,18,20,24-decaene] | 702% |  |
| ≤ 5 nM | ≤ 5 nM | ≤ 5 nM | Fc1cccc2c1-c1cc3c(n[nH]c3cn1)-c1ccc(N3CCN4CCOC[C@H]4C3)c(c1)OCCCOC2 [Compound 103, 5-[(9aR)-octahydropyrazino[2,1-c][1,4]oxazin-8-yl]-17-fluoro-7,11-dioxa-20,23,24-triazapentacyclo[17.5.2.1^2,6.0^13,18.0^22,25]heptacosa-1(24),2,4,6(27),13(18),14,16,19,21,25-decaene] |  | 580% |
| 5 to 50 nM | ≤ 5 nM | ≤ 5 nM | O[C@H]1COc2cc(ccc2N2CCN3CCOC[C@H]3C2)-c2n[nH]c3cnc(cc23)-c2c(F)cccc2OC1 [Compound 119, (9R)-5-[(9aR)-octahydropyrazino[2,1-c][1,4]oxazin-8-yl]-16-fluoro-7,11-dioxa-19,22,23-triazapentacyclo[16.5.2.1^2,6.0^12,17.0^21,24]hexacosa-1(23),2,4,6(26),12(17),13,15,18,20,24-decaen-9-ol] |  | 591% |
| ≤ 5 nM |  |  | CN1C[C@H]2C[C@@H]1CN2c1ccc2cc1OCCCOCc1cccc(F)c1-c1cc3c-2n[nH]c3cn1 [Compound 152, 17-fluoro-5-[(1R,4R)-5-methyl-2,5-diazabicyclo[2.2.1]heptan-2-yl]-7,11-dioxa-20,23,24-triazapentacyclo[17.5.2.1^2,6.0^13,18.0^22,25]heptacosa-1(24),2,4,6(27),13(18),14,16,19,21,25-decaene] |  | 432% |
| ≤ 5 nM |  |  | Fc1cccc2c1-c1cc3c(n[nH]c3cn1)-c1ccc(N3C[C@@H]4C[C@H]3CN4C3COC3)c(c1)OCCCOC2 [Compound 153, 17-fluoro-5-[(1S,4S)-5-(oxetan-3-yl)-2,5-diazabicyclo[2.2.1]heptan-2-yl]-7,11-dioxa-20,23,24-triazapentacyclo[17.5.2.1^2,6.0^13,18.0^22,25]heptacosa-1(24),2,4,6(27),13(18),14,16,19,21,25-decaene] |  | 369% |

| Structure (SMILES) | IC50 (HPK1) | IC50 (FLT3) | IC50 (KDR) | activity at 1 µM (Human Jurkat-E6-1 cells) | activity at 0.33 µM (Human Jurkat-E6-1 cells) |
| --- | --- | --- | --- | --- | --- |
| OCCN1C2CCC1CN(c1ccc3cc1OCCCOc1cccc(F)c1-c1cc4c-3n[nH]c4cn1)C2 [Compound 145, 2-(3-{16-fluoro-7,11-dioxa-19,22,23-triazapentacyclo[16.5.2.1^2,6.0^12,17.0^21,24]hexacosa-1(23),2,4,6(26),12(17),13,15,18,20,24-decaen-5-yl}-3,8-diazabicyclo[3.2.1]octan-8-yl)ethan-1-ol] | ≤ 5 nM |  |  | 512% |  |
| Fc1cccc2c1-c1cc3c(n[nH]c3cn1)-c1ccc(N3CC4CC(C3)N4C3COC3)c(c1)OCCCO2 [Compound 146, 16-fluoro-5-[6-(oxetan-3-yl)-3,6-diazabicyclo[3.1.1]heptan-3-yl]-7,11-dioxa-19,22,23-triazapentacyclo[16.5.2.1^2,6.0^12,17.0^21,24]hexacosa-1(23),2,4,6(26),12(17),13,15,18,20,24-decaene] | ≤ 5 nM |  |  | 476% |  |
| Fc1cccc2c1-c1cc3c(n[nH]c3cn1)-c1ccc(N3CC4CC(C3)N4CC3CCOCC3)c(c1)OCCCO2 [Compound 147, 16-fluoro-5-{6-[(oxan-4-yl)methyl]-3,6-diazabicyclo[3.1.1]heptan-3-yl}-7,11-dioxa-19,22,23-triazapentacyclo[16.5.2.1^2,6.0^12,17.0^21,24]hexacosa-1(23),2,4,6(26),12(17),13,15,18,20,24-decaene] | ≤ 5 nM |  |  |  | 429% |
